Laboratory results reported in the supplement of paper PMC10307832.

Columns and labels:
Assay in all cases: relative viability (nuclei count vs DMSO), 5 days (fraction); higher = more cells survive
[1] = test system: A-427
How it was run: (§1)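 Relative viability divides the nuclei count in treated wells by that in vehicle wells. Lung cancer cell lines were seeded in 1536-well plates, dosed by pin tool the next day, and fixed and stained after 5 days in one step with final 0.05% Triton X-100, 1% formaldehyde and 1 ug/ml Hoechst. Dosing was a single drug or a fixed anchor-drug dose plus five library-drug doses (not always all listed) in √10 steps, and values are medians of duplicate plates imaged at 4×.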

[2] = test system: COR-L 105
How it was run: as §1

[3] = test system: ChaGo-K-1
How it was run: as §1

[4] = test system: EKVX
How it was run: as §1

[5] = test system: EMC-BAC-2
How it was run: as §1

[6] = test system: H3255
How it was run: as §1

[7] = test system: HCC-366
How it was run: as §1

[8] = test system: LK-2
How it was run: as §1

[9] = test system: LOU-NH91
How it was run: as §1

[10] = test system: NCI-H1666
How it was run: as §1

[11] = test system: NCI-H1734
How it was run: as §1

[12] = test system: NCI-H1755
How it was run: as §1

[13] = test system: NCI-H1975
How it was run: as §1

[14] = test system: NCI-H2170
How it was run: as §1

[15] = test system: NCI-H23
How it was run: as §1

[16] = test system: NCI-H441
How it was run: as §1

[17] = test system: NCI-H520
How it was run: as §1

[18] = test system: NCI-H596
How it was run: as §1

[19] = test system: PC-3 [JPC-3]
How it was run: as §1

[20] = test system: SK-MES-1
How it was run: as §1

Compound: Nc1ccn([C@@H]2O[C@H](CO)[C@@H](O)[C@@H]2O)c(=O)n1 [Cytarabine] + CC1(C)CCC(c2ccc(Cl)cc2)=C(CN2CCN(c3ccc(C(=O)NS(=O)(=O)c4ccc(N[C@H](CCN5CCOCC5)CSc5ccccc5)c(S(=O)(=O)C(F)(F)F)c4)cc3)CC2)C1 [Navitoclax] (partner 0.5 µM)
- relative viability ([1]; first compound 0.005 µM): 0.813
- relative viability ([1]; first compound 0.01581 µM): 0.496
- relative viability ([1]; first compound 0.05 µM): 0.257
- relative viability ([1]; first compound 0.1581 µM): 0.154
- relative viability ([1]; first compound 0.5 µM): 0.16
- relative viability ([2]; first compound 0.005 µM): 0.699
- relative viability ([2]; first compound 0.01581 µM): 0.795
- relative viability ([2]; first compound 0.05 µM): 0.588
- relative viability ([2]; first compound 0.1581 µM): 0.435
- relative viability ([2]; first compound 0.5 µM): 0.34
- relative viability ([3]; first compound 0.005 µM): 0.74
- relative viability ([3]; first compound 0.01581 µM): 0.505
- relative viability ([3]; first compound 0.05 µM): 0.453
- relative viability ([3]; first compound 0.1581 µM): 0.364
- relative viability ([3]; first compound 0.5 µM): 0.37
- relative viability ([4]; first compound 0.005 µM): 0.936
- relative viability ([4]; first compound 0.01581 µM): 0.933
- relative viability ([4]; first compound 0.05 µM): 0.664
- relative viability ([4]; first compound 0.1581 µM): 0.298
- relative viability ([4]; first compound 0.5 µM): 0.198
- relative viability ([5]; first compound 0.005 µM): 0.843
- relative viability ([5]; first compound 0.01581 µM): 0.987
- relative viability ([5]; first compound 0.05 µM): 0.789
- relative viability ([5]; first compound 0.1581 µM): 0.243
- relative viability ([5]; first compound 0.5 µM): 0.19
- relative viability ([6]; first compound 0.005 µM): 0.451
- relative viability ([6]; first compound 0.01581 µM): 0.506
- relative viability ([6]; first compound 0.05 µM): 0.411
- relative viability ([6]; first compound 0.1581 µM): 0.325
- relative viability ([6]; first compound 0.5 µM): 0.332
- relative viability ([7]; first compound 0.005 µM): 0.889
- relative viability ([7]; first compound 0.01581 µM): 0.918
- relative viability ([7]; first compound 0.05 µM): 0.328
- relative viability ([7]; first compound 0.1581 µM): 0.0444
- relative viability ([7]; first compound 0.5 µM): 0.0177
- relative viability ([8]; first compound 0.005 µM): 0.527
- relative viability ([8]; first compound 0.01581 µM): 0.425
- relative viability ([8]; first compound 0.05 µM): 0.316
- relative viability ([8]; first compound 0.1581 µM): 0.191
- relative viability ([8]; first compound 0.5 µM): 0.194
- relative viability ([9]; first compound 0.005 µM): 0.693
- relative viability ([9]; first compound 0.01581 µM): 0.606
- relative viability ([9]; first compound 0.05 µM): 0.463
- relative viability ([9]; first compound 0.1581 µM): 0.332
- relative viability ([9]; first compound 0.5 µM): 0.35
- relative viability ([10]; first compound 0.005 µM): 0.755
- relative viability ([10]; first compound 0.01581 µM): 0.796
- relative viability ([10]; first compound 0.05 µM): 0.718
- relative viability ([10]; first compound 0.1581 µM): 0.41
- relative viability ([10]; first compound 0.5 µM): 0.355
- relative viability ([11]; first compound 0.005 µM): 0.418
- relative viability ([11]; first compound 0.01581 µM): 0.322
- relative viability ([11]; first compound 0.05 µM): 0.197
- relative viability ([11]; first compound 0.1581 µM): 0.142
- relative viability ([11]; first compound 0.5 µM): 0.126
- relative viability ([12]; first compound 0.005 µM): 0.914
- relative viability ([12]; first compound 0.01581 µM): 0.821
- relative viability ([12]; first compound 0.05 µM): 0.583
- relative viability ([12]; first compound 0.1581 µM): 0.201
- relative viability ([12]; first compound 0.5 µM): 0.194
- relative viability ([13]; first compound 0.005 µM): 0.944
- relative viability ([13]; first compound 0.01581 µM): 1.26
- relative viability ([13]; first compound 0.05 µM): 1.1
- relative viability ([13]; first compound 0.1581 µM): 0.567
- relative viability ([13]; first compound 0.5 µM): 0.359
- relative viability ([14]; first compound 0.01581 µM): 0.448
- relative viability ([14]; first compound 0.05 µM): 0.361
- relative viability ([14]; first compound 0.1581 µM): 0.28
- relative viability ([14]; first compound 0.5 µM): 0.263
- relative viability ([15]; first compound 0.005 µM): 0.753
- relative viability ([15]; first compound 0.01581 µM): 0.551
- relative viability ([15]; first compound 0.05 µM): 0.394
- relative viability ([15]; first compound 0.1581 µM): 0.206
- relative viability ([15]; first compound 0.5 µM): 0.173
- relative viability ([16]; first compound 0.005 µM): 0.547
- relative viability ([16]; first compound 0.01581 µM): 0.648
- relative viability ([16]; first compound 0.05 µM): 0.556
- relative viability ([16]; first compound 0.1581 µM): 0.176
- relative viability ([16]; first compound 0.5 µM): 0.161
- relative viability ([17]; first compound 0.005 µM): 0.955
- relative viability ([17]; first compound 0.01581 µM): 0.902
- relative viability ([17]; first compound 0.05 µM): 1.14
- relative viability ([17]; first compound 0.1581 µM): 0.904
- relative viability ([17]; first compound 0.5 µM): 0.781
- relative viability ([18]; first compound 0.005 µM): 0.874
- relative viability ([18]; first compound 0.01581 µM): 0.894
- relative viability ([18]; first compound 0.05 µM): 0.611
- relative viability ([18]; first compound 0.1581 µM): 0.558
- relative viability ([18]; first compound 0.5 µM): 0.413
- relative viability ([19]; first compound 0.005 µM): 0.753
- relative viability ([19]; first compound 0.01581 µM): 0.774
- relative viability ([19]; first compound 0.05 µM): 0.7
- relative viability ([19]; first compound 0.1581 µM): 0.605
- relative viability ([19]; first compound 0.5 µM): 0.556
- relative viability ([20]; first compound 0.005 µM): 0.957
- relative viability ([20]; first compound 0.01581 µM): 0.869
- relative viability ([20]; first compound 0.05 µM): 0.408
- relative viability ([20]; first compound 0.1581 µM): 0.22
- relative viability ([20]; first compound 0.5 µM): 0.178
